From PMC9320114 (Molecules, 2022)
Like-named read-outs stand apart in the source and are kept apart here.

Assays:
[1] = target: T1, hMAO-B (Homo sapiens, UniProt P27338); experiment: biochemical; details: for IC50: IC50 ± SEM
T1 construct: purchased Sigma Aldrich; host or cells: BTI-TN-5B1-4 baculovirus-infected insect cells
T1 sequence (P27338 1-520): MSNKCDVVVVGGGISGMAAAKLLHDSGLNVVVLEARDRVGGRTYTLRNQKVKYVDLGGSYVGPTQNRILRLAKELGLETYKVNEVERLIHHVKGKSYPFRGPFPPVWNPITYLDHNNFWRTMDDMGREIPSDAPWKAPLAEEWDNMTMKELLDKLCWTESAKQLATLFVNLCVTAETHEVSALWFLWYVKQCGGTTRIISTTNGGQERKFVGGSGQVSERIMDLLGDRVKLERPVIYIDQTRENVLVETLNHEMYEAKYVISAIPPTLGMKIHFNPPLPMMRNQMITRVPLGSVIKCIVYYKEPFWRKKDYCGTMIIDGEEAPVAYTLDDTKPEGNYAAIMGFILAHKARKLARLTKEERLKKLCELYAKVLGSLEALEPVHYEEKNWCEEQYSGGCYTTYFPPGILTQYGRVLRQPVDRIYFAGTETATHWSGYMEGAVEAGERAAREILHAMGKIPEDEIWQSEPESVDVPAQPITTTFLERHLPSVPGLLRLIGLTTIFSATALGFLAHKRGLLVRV
From the text: The effects of the compounds on hMAO-A and hMAO-B were investigated using a fluorimetric assay, following a method previously described in the literature. Recombinant human microsomal hMAO enzymes expressed in BTI-TN-5B1-4 baculovirus-infected insect cells, horseradish peroxidase (HRP, type II, lyophilized powder), and p-tyramine hydrochloride were purchased from Sigma Aldrich. 10-Acetyl-3,7-dihydroxyphenoxazine (Amplex Red reagent) was synthesized as described in the literature.
After preincubation, the reaction was started by adding final concentrations of 200 µM Amplex Red reagent, 2 U/mL HRP, and 1 mM p-tyramine hydrochloride. Resorufin production was quantified based on the fluorescence produced (λex = 530 nm; λem = 590 nm) at 37 °C over a 20 min period. For the control experiments, DMSO was used instead of appropriate dilutions of the compounds in DMSO. For the determination of blank (b), the enzyme solution was replaced by a phosphate-buffered solution. Initial velocities were calculated from the obtained trend, with each measurement performed in duplicate. Specific fluorescence emission to determine the final results was calculated after subtracting the blank activity (b). Inhibitory potencies were expressed as RAs, and IC50 values were calculated as described in the section “Inhibition of hBChE and mAChE” above.

[2] = target: MurA (Escherichia coli, UniProt P0A749); experiment: Inhibition of MurA, colorimetric malachite green method; format: biochemical, bacterial; details: for remaining activity at 50 µM: 0.25 h, read-out: MurA (RA [%]); for RA (MurA, 50 µM): residual activity at 50 µM, Figure 1; for MurA RA (%): residual activity at 100 µM, Table 1
Chain of MurA (P0A749 whole entry): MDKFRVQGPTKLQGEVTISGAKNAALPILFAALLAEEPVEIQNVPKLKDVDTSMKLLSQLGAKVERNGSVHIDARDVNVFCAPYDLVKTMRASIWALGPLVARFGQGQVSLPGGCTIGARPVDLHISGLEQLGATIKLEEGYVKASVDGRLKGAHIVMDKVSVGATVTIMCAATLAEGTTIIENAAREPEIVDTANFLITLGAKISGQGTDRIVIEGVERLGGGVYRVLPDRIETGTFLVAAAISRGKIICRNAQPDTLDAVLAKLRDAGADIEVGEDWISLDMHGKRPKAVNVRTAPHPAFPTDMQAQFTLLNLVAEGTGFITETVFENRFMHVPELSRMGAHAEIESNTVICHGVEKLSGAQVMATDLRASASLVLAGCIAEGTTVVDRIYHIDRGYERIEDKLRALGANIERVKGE
Method: (§1) Inhibition of Mur enzymes was monitored with the colorimetric malachite green method, which measured orthophosphate formed during reaction. The mixtures with a final volume of 50 µL contained:
MurA: 50 mM HEPES-NaOH, pH 7.8, 0.005% Triton X-114, 200 µM uridine-diphosphate-N-acetylglucosamine, 100 µM phosphoenolpyruvate, purified MurA, and 50 or 100 µM of each compound tested.
(§2) All compounds were soluble in the assay mixtures containing 5% DMSO (v/v). After incubation for 15 min (20 min for DdlB) at 37 °C, the enzyme reaction was terminated by addition of Biomol® reagent (100 µL) and absorbance was measured after 5 min at 650 nm (Synergy™ H4 microplate reader; BioTek Instruments, Inc., BioTek Gen5 Data Analysis Software, version 2.9, Santa Clara, CA, USA). All experiments were performed in duplicate.

[3] = target: MurC (Escherichia coli, UniProt P17952); experiment: Inhibition of MurC, colorimetric malachite green method; format: biochemical, bacterial; details: for remaining activity at 50 µM / remaining activity at 100 µM: 0.25 h; for remaining activity at 50 µM: read-out: MurC (RA [%]); for remaining activity at 100 µM: residual activity at 100 µM, read-out: MurC RA (%)
Chain of MurC (P17952 whole entry): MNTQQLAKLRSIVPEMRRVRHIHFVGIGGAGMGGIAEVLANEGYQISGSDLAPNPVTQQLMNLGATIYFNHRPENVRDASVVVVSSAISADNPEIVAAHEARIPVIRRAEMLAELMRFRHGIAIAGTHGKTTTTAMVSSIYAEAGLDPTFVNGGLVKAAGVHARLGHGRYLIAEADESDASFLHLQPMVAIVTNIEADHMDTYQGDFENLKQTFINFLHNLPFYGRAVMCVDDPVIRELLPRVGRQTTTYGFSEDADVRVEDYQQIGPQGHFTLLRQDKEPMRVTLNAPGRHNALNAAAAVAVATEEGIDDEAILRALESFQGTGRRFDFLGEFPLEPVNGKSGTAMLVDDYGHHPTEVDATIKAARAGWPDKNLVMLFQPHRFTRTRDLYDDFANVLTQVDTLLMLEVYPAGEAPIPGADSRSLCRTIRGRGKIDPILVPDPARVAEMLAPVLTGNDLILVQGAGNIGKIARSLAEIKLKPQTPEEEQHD
Method: as §1
MurC: 50 mM HEPES-NaOH, pH 8.0, 5 mM MgCl2, 0.005% Triton X-114, 120 µM L-Ala, 120 µM UDP-N-acetyl-muramic acid, 450 µM ATP, purified MurC, and 50 or 100 µM of each compound tested.
as §2

[4] = residual activity at 10 µM, Mini Library screen, Table S1, read-out: hMAO-B (RA [%])
[5] = residual activity at 10 µM, Table 3, read-out: hMAO-B RA (%)

SMILES | remaining activity at 10 µM [1, 4] | remaining activity at 50 µM [2] | IC50 [3] | remaining activity at 50 µM [3] | remaining activity at 100 µM ([3]; Table 2) | IC50 ([3]; Table 2, IC50 ± SEM, read-out: MurC IC50) | IC50 [2] | RA (MurA, 50 µM) [2] | MurA RA (%) [2] | IC50 ([1]; Table 3) | remaining activity at 10 µM [1, 5] | hMAO-B RA [%] ([1]; residual activity at 10 µM, Table S3)
CCCCc1nc2ccn(Cc3ccccc3)c(=O)c2n1Cc1ccc(-c2ccccc2-c2nnn[nH]2)cc1 [MS-ML03] | 97% | 100% | 85 ± 15 µM | 61% | 40% |  |  |  |  |  |  | 
CCCCc1nc2ccn(CC(=O)N3CCCCC3)c(=O)c2n1Cc1ccc(-c2ccccc2S(=O)(=O)NC(=O)OCc2ccccc2)cc1F [MS-ML05] | 93% | 90% |  | 55% | 32% | 101 ± 23 µM |  |  |  |  |  | 
C1=C(c2ccccc2)CCN(CCCCc2c[nH]c3ccccc23)C1 [MS-ML10] | 82% | 110% |  | 74% |  |  |  |  |  |  |  | 
Oc1ccc2[nH]cc(CCCCN3CC=C(c4ccccc4)CC3)c2c1 [MS-ML11] | 45% | 100% |  | 89% |  |  |  |  |  |  |  | 
CCCCCCN(Cc1ccc(C#Cc2ccc(CCCC)cc2)cc1)c1ccc(O)c(C(=O)O)c1 [MS-ML24] | 64% | 15% |  | 83% |  |  | 7 ± 3 µM | 15% | 0% |  |  | 
CCCCCCN(Cc1ccc(C#Cc2ccc(CCCC)cc2)cc1)C(=O)c1ccc(O)c(C(=O)O)c1 [MS-ML25] | 77% | 0% |  | 98% |  |  | 6 ± 2 µM | 0% | 0% |  |  | 
CCCCCCN(Cc1ccc(C#Cc2ccc(CCCC)cc2)cc1)c1ccc(F)c(C(=O)O)c1 [MS-ML26] | 92% | 7% |  | 73% |  |  | 7 ± 4 µM | 7% | 0% |  |  | 
O=C(OC[C@H]1CCCN1c1ccnc2ncnn12)c1ccc(Oc2ccccc2)nc1 [MS-ML31] | 13% | 94% |  | 94% |  |  |  |  |  | 0.912 ± 0.122 µM | 17% | 17%
O=C(Nc1ccc(Oc2ccncc2)cc1)Nc1cc(C(F)(F)F)ccc1-n1cncn1 [MS-ML80] | 11% | 93% |  | 96% |  |  |  |  |  | 0.405 ± 0.076 µM | 10% | 
